The source of these data is patent US11834450B2, “Compounds having ((3-nitrophenyl)sulfonyl)acetamide as BCL-2 inhibitors” (Eil Therapeutics, Inc., priority 2021, dated 2023).

In one series the target is T1, BCL-XL (Homo sapiens, UniProt Q07817).
T1 construct: purchased BPS Bioscience #50223
Kind of series: BCL-XL TR-FRET Assay (primary PPI inhibition). Format: binding. The settings on record: 60 min incubation; read-out: BCLxL (IC50 code, BCL-XL TR-FRET). The procedure, abridged: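 10.5 ng His-tagged BCL-XL incubated 60 min with test compound, BCL-XL peptide ligand (1:80), Tb-labelled anti-His donor and dye-labelled acceptor (each 1:100). Displacement read as TR-FRET, excitation 340 nm, emission 620 and 665 nm, 60 μs delay, 500 μs integration.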

Series [1] has as its system caspase-3 and -7 activities in RS4-11 cells. The experiment in a line: Cas-3/7 activation (Caspase-Glo 3/7) in RS4-11 cells. The format is cell-based. The settings on record: Homo sapiens, 3.5 h at 37° C. and 30 min at r.t., read-out: Cas-3/7 (EC50 code). The procedure, abridged:
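RS4-11 cells were exposed to graded compound concentrations for 3.5 h at 37° C/5% CO2, then 30 min at room temperature. Caspase-3/7 activity was measured by luminescence after 30 min with a DEVD luminogenic substrate reagent.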

In a further series the target is T2, BCL-2 (Homo sapiens, UniProt P10415).
T2 construct: purchased BPS Bioscience #50222
The experiment in a line: BCL-2 TR-FRET Assay (primary PPI inhibition). The format is binding. As to conditions: 60 min incubation; read-out: BCL2 (IC50 code, BCL-2 TR-FRET).

For another series, the system named is MOLT-4 cells. The experiment in a line: Cell viability assay MOLT-4 (CellTiter-Glo). The format is cell-based. The settings on record: Homo sapiens, 72 h; MOLT-4 cells, 3 days, CellTiter-Glo; read-out: MOLT-4 (CC50 code). Put shortly: (§1)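 Cells were seeded at 2000/well (HEK293, in DMEM, pre-incubated a day) or 4000/well (other lines, in RPMI-1640). Serially diluted compound was added and plates incubated 3 days at 37 °C, with viability read by CellTiter-Glo luminescence.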

A further series relates to RS4-11 cells. Kind of series: Cell viability assay RS4-11 (CellTiter-Glo). The format is cell-based. The settings on record: Homo sapiens, 72 h; RS4-11 cells, 3 days, CellTiter-Glo; read-out: RS4-11 (CC50 code). Put shortly: as §1
A short description of series [2]: Cell viability assay HEK293 (CellTiter-Glo). Format: cell-based. As to conditions: human, HEK293 cells, read-out: HEK293 (CC50 code). Put shortly:
as §1

pEC50, pIC50: −log10 of the molar value.

T1 sequence (Q07817 whole entry): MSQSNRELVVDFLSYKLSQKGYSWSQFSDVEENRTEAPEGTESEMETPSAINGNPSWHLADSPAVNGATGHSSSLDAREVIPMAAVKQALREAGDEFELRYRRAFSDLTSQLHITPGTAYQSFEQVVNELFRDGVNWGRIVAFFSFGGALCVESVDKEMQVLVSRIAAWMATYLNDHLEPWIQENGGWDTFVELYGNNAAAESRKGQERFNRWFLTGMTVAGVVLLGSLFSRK
T2 sequence (P10415 whole entry): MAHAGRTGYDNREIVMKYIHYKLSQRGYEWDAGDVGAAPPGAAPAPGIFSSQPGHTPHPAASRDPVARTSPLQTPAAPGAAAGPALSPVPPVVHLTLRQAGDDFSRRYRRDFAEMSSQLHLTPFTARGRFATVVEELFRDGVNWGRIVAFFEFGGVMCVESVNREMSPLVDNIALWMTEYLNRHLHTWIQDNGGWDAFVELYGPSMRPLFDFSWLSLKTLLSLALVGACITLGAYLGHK

In the case of `O=C(NS(=O)(=O)c1ccc(NCC2CCOCC2)c([N+](=O)[O-])c1)c1ccc(N2CCN(C[C@@H]3Cc4ccccc4CN3C(=O)c3ccc(Cl)s3)CC2)cc1Oc1cnc2[nH]ccc2c1` [Compound 35, 4-[4-[[(3S)-2-(5-chlorothiophene-2-carbonyl)-3,4-dihydro-1H-isoquinolin-3-yl]methyl]piperazin-1-yl]-N-[3-nitro-4-(tetrahydropyran-4-ylmethylamino)phenyl]sulfonyl-2-(1H-pyrrolo[2,3-b]pyridin-5-yloxy)benzamide], the pIC50 is less than 5.40 on BCL-XL and less than 7.30 on BCL-2. For the same compound, in series [1], the pEC50 was less than 6.60. The CC50 is 2 to 10 µM in the series on MOLT-4 cells and more than 0.2 µM with RS4-11 cells. Besides, the CC50 at 3 days in series [2] was more than 25 µM.
Take `CC1(C)CN(CC2CCN(c3ccc(C(=O)NS(=O)(=O)c4ccc(NCC5CCOCC5)c([N+](=O)[O-])c4)c(Oc4cnc5[nH]ccc5c4)c3)CC2)Cc2ccccc21` [Compound 39, 4-[4-[(4,4-dimethyl-1,3-dihydroisoquinolin-2-yl)methyl]-1-piperidyl]-N-[3-nitro-4-(tetrahydropyran-4-ylmethylamino)phenyl]sulfonyl-2-(1H-pyrrolo[2,3-b]pyridin-5-yloxy)benzamide]: the pIC50 is less than 5.40 on BCL-XL and less than 7.30 on BCL-2. Besides, in series [1], the pEC50 was less than 6.60. The CC50 is 2 to 10 µM in the series on MOLT-4 cells and more than 0.2 µM in the series with RS4-11 cells. Further, the CC50 at 3 days in series [2] is more than 25 µM.
